# Results reported in publication PMC5323433 (The pharmacogenomics journal, 2016).
# What was measured:
# [1] = Steady-state plasma exemestane concentration two hours after dosing; type: in vivo, human; settings: for Relative % change per variant allele (95% CI): additive model
# [2] = cited from earlier work
# [3] = test system: breast cancer; settings: letrozole compared to placebo in 352 minority patients, p=0.53; cited from earlier work
# [4] = CYP3A4*22 rs35599367, oral 25 mg/day, 2 h post-dose
smiles,measurement,setting,value
C=C1C[C@@H]2[C@H](CC[C@]3(C)C(=O)CC[C@@H]23)[C@@]2(C)C=CC(=O)C=C12 [exemestane],Median Exemestane Concentration,"[1]; 1st Tertile (CrCl > 108.5 mL/min), 2 h post-dose",5.9 ng/mL
same,Relative % Change Compared with Reference (95% Confidence Interval),[1]; 2nd CrCl tertile vs 1st tertile (reference),+42.9% (8.3%–88.5%)
same,Median Exemestane Concentration,"[1]; 2nd Tertile (83.0 < CrCl ≤ 108.5), 2 h post-dose",8.6 ng/mL
same,Relative % Change Compared with Reference (95% Confidence Interval),[1]; 3rd CrCl tertile vs 1st tertile (reference),+51.1% (14.5%–99.5%)
same,Median Exemestane Concentration,"[1]; 3rd Tertile (CrCl ≤ 83.0 mL/min), 2 h post-dose",8.0 ng/mL
same,Relative % change per variant allele (95% CI),[1]; AKR1C4 Leu311Val rs17134592,"−8% (−25%, 13%)"
same,Relative % change per variant allele (95% CI),[1]; AKR7A2 A142T rs1043657,"−1% (−22%, 26%)"
same,Relative % Change (95% Confidence Interval),"[1]; Age, per year increase","+0.8% (−0.4%, 2%)"
same,Relative % Change (95% Confidence Interval),"[1]; BMI, per unit increase","−1.5% (−3%, 0%)"
same,Relative % Change Compared with Reference (95% Confidence Interval),[1]; Black vs White (reference),−32.2% (−52.1%–−4.0%)
same,Relative % change per variant allele (95% CI),[1]; CYP1A1 15:74724835 rs2606345,"0% (−13%, 15%)"
same,Relative % change per variant allele (95% CI),[1]; CYP1A1*2 rs4646903,"+16% (−7%, 46%)"
same,Relative % change per variant allele (95% CI),[1]; CYP1B1 2:38080367 rs162555,"6% (−11%, 26%)"
same,Relative % change per variant allele (95% CI),[1]; CYP1B1 Ala119Ser rs1056827,"−1% (−15%, 16%)"
same,Relative % change per variant allele (95% CI),[1]; CYP1B1 Arg48Gly rs10012,"−4% (−18%, 12%)"
same,Relative % change per variant allele (95% CI),[1]; CYP3A4*1G rs2242480,"−4% (−20%, 15%)"
same,"Median Concentration (range), Heterozygous",[1]; [4],10.7 (2.8 – 72.0) ng/mL
same,"Median Concentration (range), Homozygous Wild-type",[1]; [4],7.7 (2.5 – 42.2) ng/mL
same,Relative % change per variant allele (95% CI),[1]; CYP4A11 −845A/G rs9332978,"+14% (−15%, 51%)"
same,Patients with concentration <LLOQ,"[1]; LLOQ 2.5 ng/mL, 26 of 246 patients",10.6%
same,Median Exemestane Concentration,"[1]; Sample Collection Time 1 month, 2 h post-dose",6.0 ng/mL
same,Median Exemestane Concentration,"[1]; Sample Collection Time 3 month, 2 h post-dose",8.0 ng/mL
same,Relative % Change Compared with Reference (95% Confidence Interval),[1]; elevated aminotransferases Yes vs No (reference),"+42.9% (0.6%, 103%)"
same,Decrease in exemestane concentration per unit increase in BMI,[1]; per unit increase in BMI,1.5%
same,Greater exemestane exposure in patients with hepatic impairment,[2]; hepatic impairment based on Child-Pugh grade,2–3 fold
same,Greater exemestane exposure in patients with renal impairment,[2]; renal impairment,2–3 fold
N#Cc1ccc(C(c2ccc(C#N)cc2)n2cncn2)cc1 [letrozole],Disease free survival hazard ratio,[3],1.39
